Consider two compounds from patent EP1902732A1, “PROPHYLACTIC/THERAPEUTIC AGENT FOR HER2-EXPRESSING CANCER” (Takeda Pharmaceutical Company Limited, priority 2005, dated 2006).

Test [1] deals with Akt. The experiment in a line: Western blotting of phosphorylated Akt in SK-BR-3 cells. The format is cell-based, human. The settings on record: Example 4, medium glucose 0.1 mg/mL, 5 mg/mL, two hours. As for the experimental part:
(§1) HER2-expressing human cancer cell line SK-BR-3 (purchased from ATCC) was seeded into a 24-multiwell plate (4.0 x 10^5 cells/well) and cultured overnight in a carbon dioxide gas incubator (5% CO2, 37°C). Then, the medium was exchanged for a medium with a glucose content of 0.1 mg/mL and cultured for another 2 hours. A glucose antimetabolite 2-deoxyglucose was added to a final concentration of 5 mg/mL. Two hours later, the broth was removed and the cells were lysed with an SDS sample buffer (200 µL). This cell lysate (8 µL) was separated by an SDS-PAGE method (gel concentration: 7.5-15%) (Shagger et al., Analytical Biochemistry, No. 166, pp. 368-379, 1987). Then, western blotting analysis was performed in the same manner as in Example 1 to detect phosphorylated HER2, phosphorylated Akt and phosphorylated MAPK.
A general note: Immunoblotting shows a protein as a band on a membrane.

For test [2], the system named is MAPK. As to the kind of experiment: Western blotting of phosphorylated MAPK in SK-BR-3 cells. The format is cell-based, human. The settings on record: Example 4, medium glucose 0.1 mg/mL, 5 mg/mL, two hours. As for the experimental part:
as §1

In test [3] the test system is HER2. The experiment in a line: Western blotting of phosphorylated HER2 in SK-BR-3 cells. The format is cell-based, human. The settings on record: Example 4, medium glucose 0.1 mg/mL, 5 mg/mL, two hours. As for the experimental part:
as §1

In test [4] the test system is MAPK. The experiment in a line: Western blotting of phosphorylated MAPK in BT-474 cells. The format is cell-based, human. The settings on record: Example 2, 4-fold dilution series from 1 µmol/L in 5 steps, 2 hours. As for the experimental part:
(§2) Human HER2-expressing human breast cancer cell line BT-474 (purchased from American Tissue Culture Collection (ATCC)) was seeded into a 24-multiwell plate (BT-474: 1.2 x 10^5 cells/well), and cultured overnight in a carbon dioxide gas incubator (5% CO2, 37°C). A 4-fold dilution series of a mitochondrial respiratory chain complex inhibiting compound (complex I: rotenone, complex III: antimycin, complex V: oligomycin: Wako Pure Chemical Industries) was added starting from a final concentration of 1 µmol/L in 5 steps while continuing culture. After 2 hours, the broth was removed, and the cells were lysed with an SDS sample buffer (200 µL). Western blotting analysis was performed as follows. Specifically, this cell lysate (8 µL) was separated by an SDS-PAGE method (gel concentration: 7.5-15%) (Analytical Biochemistry, No. 166, pp. 368-379, 1987), and transferred to a nitrocellulose membrane (BioRad). Then, an antibody specific to phosphorylated HER2 (Cell signaling technology, Code# 2244), an anti-phosphorylated Akt antibody specific to downstream antiapoptotic signal transducing molecule Akt (Cell signaling technology, Code# 9271) and an anti-phosphorylated MAPK antibody specific to downstream proliferation signal transducing molecule MAPK (Cell signaling technology, Code# 9101) were used to detect the antibody with an ECL system (Amersham) to quantify the amount of phosphorylated protein by an image analysis.
(§3) Human HER2-expressing human cancer cell line BT-474 (purchased from ATCC) was seeded into a 24-multiwell plate (1.2 x 10^5 cells/well) and cultured overnight in a carbon dioxide gas incubator (20% O2, 5% CO2, 37°C). A 3-fold dilution series of metformin that activates AMPK (The Journal of Biological Chemistry, Vol. 279, No. 42, pp. 43940-43951, 2004) was added starting from a final concentration of 15 mmol/L in 5 steps while continuing culture. Two hours later, the broth was removed and the cells were lysed with an SDS sample buffer (200 µL). This cell lysate (8 µL) was separated by an SDS-PAGE method (gel concentration: 7.5-15%) (Analytical Biochemistry, No. 166, pp. 368-379, 1987). Then, western blotting analysis was performed in the same manner as in Example 1 to quantify phosphorylated HER2, phosphorylated Akt and phosphorylated MAPK.

Test [5] relates to Akt. The experiment in a line: Western blotting of phosphorylated Akt in BT-474 cells. The format is cell-based, human. The settings on record: Example 2, 4-fold dilution series from 1 µmol/L in 5 steps, 2 hours. As for the experimental part: as §2, §3
The test system of another test is AMPK. As to the kind of experiment: Western blotting of AMPK protein amount in BT-474 cells. The settings on record: Example 6, 1, 0.333, 0.111, 0.033 and 0.011 µmol/L, two hours. The format is cell-based, human. As for the experimental part:
(§4) Human HER2-expressing human breast cancer cell line BT-474 (purchased from American Tissue Culture Collection (ATCC)) was seeded into a 24-multiwell plate (BT-474: 1.2 x 10^5 cells/well), and cultured overnight in a carbon dioxide gas incubator (5% CO2, 37°C). Mitochondrial respiratory chain complex 1-inhibiting compound rotenone (Wako Pure Chemical Industries) was added in 5 steps at final concentrations of 1, 0.333, 0.111, 0.033 and 0.011 µmol/L while continuing culture. Two hours later, the broth was removed and the cells were lysed with an SDS sample buffer (200 µL). Then, this cell lysate was used to perform western blotting analysis. Specifically, this cell lysate (8 µL) was separated by an SDS-PAGE method (gel concentration: 7.5-15%) (Analytical Biochemistry, No. 166, pp. 368-379, 1987) and transferred to a nitrocellulose membrane (BioRad). Then, an antibody specific to phosphorylated HER2 (Cell signaling technology, Code# 2244), an AMPK antibody specific to AMPK (Cell signaling technology, Code# 2535) and an anti-phosphorylated AMPK antibody specific to phosphorylated AMPK (Cell signaling technology, Code# 2532) were used to detect the antibody by chemiluminescent detection with an ECL system (Amersham) to quantify an amount of phosphorylated protein with LAS-1000 plus image analysis device (FUJIFILM).

The subject of test [6] is BT-474 breast cancer cell. As to the kind of experiment: Sulphorhodamine-B (SRB) cell proliferation assay. The format is cell-based. The note with it: Homo sapiens, BT-474, 120 h; HER2-expressing cell; cultured for five days; SRB staining. As for the experimental part: (§5) BT-474 breast cancer cell (purchased from ATCC) was used as a human HER2-expressing cell and MDA-MB-231 breast cancer cell (purchased from ATCC) was used as a HER2-nonexpressing cell. These cells were seeded into a 96-multiwell plate (BT-474: 3.0 x 10^4 cells/well, MDA-MB-231: 1.5 x 10^4 cells/well), and cultured overnight in a carbon dioxide gas incubator (5% CO2, 37°C). A 4-fold dilution series of a mitochondrial respiratory chain complex-inhibiting compound (complex I: rotenone) was added starting from a final concentration of 10 µmol/L in 10 steps, and further cultured for five days. At the end of culture, the broth containing rotenone was removed, the cells were washed with a phosphoric acid buffer, immobilized with 5% trichloroacetic acid solution, and added with 0.4% (W/V) sulphorhodamine-B (SRB) dye solution (dissolved in 1% acetic acid) for staining the cellular protein. Subsequently, the SRB dye solution was removed from the plate and the plate was washed with a 1% acetic acid solution. Then, 100 µL 10 mM Tris buffer solution was added for extraction and dye dissolution, and absorbance at an absorption wavelength of 550 nm was measured to determine the cellular quantity as a protein amount (Journal of National Cancer Institute. Vol. 82, pp. 1107-1112, 1990). […]

The test system of test [7] is MDA-MB-231 breast cancer cell. The experiment in a line: Sulphorhodamine-B (SRB) cell proliferation assay. The settings on record: Homo sapiens, MDA-MB-231, 120 h; HER2-nonexpressing cell; cultured for five days; SRB staining. The format is cell-based. The protocol:
as §5
For orientation: Sulforhodamine B stains cellular protein and so reports cell mass.

A further test concerns phosphorylated AMPK. As to the kind of experiment: Western blotting of phosphorylated AMPK in BT-474 cells. The format is cell-based, human. The settings on record: Example 6, 1, 0.333, 0.111, 0.033 and 0.011 µmol/L, two hours. The protocol:
as §4

The test system of test [8] is HER2. The experiment in a line: Western blotting of phosphorylated HER2 in BT-474 cells. The format is cell-based, human. As for the experimental part:
as §2, §3, §4
Human HER2-expressing human breast cancer cell line BT-474 (purchased from American Tissue Culture Collection (ATCC)) was seeded into a 24-multiwell plate (BT-474: 1.2 x 10^5 cells/well) and cultured overnight in a carbon dioxide gas incubator (5% CO2, 37°C). […]

For another test, the system named is EGFR. The experiment in a line: Western blotting of phosphorylated EGFR in A431 cells. The format is cell-based, human. The settings on record: Example 9, 4-fold dilution series from 1 µmol/L in 5 steps, 2 hours. As for the experimental part: Human EGFR-expressing human epidermal cancer cell line A431 (purchased from American Tissue Culture Collection (ATCC)) was seeded into a 24-multiwell plate (A431:6x10^4 cells/well), and cultured overnight in a carbon dioxide gas incubator (5% CO2, 37°C). A 4-fold dilution series of a mitochondria complex-inhibiting compound (complex I: rotenone, Wako Pure Chemical Industries) was added in 5 steps starting from a final concentration of 1 µmol/L while continuing culture. The broth was removed 2 hours later, and cells were lysed with an SDS sample buffer (200 µL). Western blotting analysis was conducted as follows. Specifically, this cell lysate (8 µL) was separated by an SDS-PAGE method (gel concentration: 7.5-15%) (Analytical Biochemistry, No. 166, pp. 368-379, 1987) and transferred onto a nitrocellulose membrane (BioRad). Subsequently, an antibody specific to phosphorylated EGFR (Cell signaling technology, Code# 2232) was used to detect an antibody with an ECL system (Amersham) to quantify the amount of phosphorylated protein by an image analysis.

pIC50: −log10 of the molar value.

In the case of `O=CC[C@@H](O)[C@H](O)[C@H](O)CO` [2-deoxyglucose], in the test with Akt [1], the Akt phosphorylation result is “suppressed phosphorylation of each protein”. In the test with MAPK [2], the MAPK phosphorylation entry is reported as “suppressed phosphorylation of each protein”. Moreover, the HER2 phosphorylation result in the test with HER2 [3] is reported as “suppressed phosphorylation of each protein”.

Broadly, the pIC50 is the IC50 on a negative log10 scale, so that one unit is a factor of ten. Regarding `C=C(C)[C@H]1Cc2c(ccc3c2O[C@@H]2COc4cc(OC)c(OC)cc4[C@@H]2C3=O)O1` [rotenone], the MAPK phosphorylation entry in the test with MAPK [4] was “suppressions of Akt and MAPK phosphorylations were also confirmed”. For the same compound, in the test on Akt [5], the Akt phosphorylation entry is “suppressions of Akt and MAPK phosphorylations were also confirmed”. The “amount of AMPK protein itself” value with AMPK was “A quantitative change was not observed”. Besides, the pIC50 in [6] was 8.40; in test [7] it was 6.30. The “amount of AMPK phosphorylation” value with phosphorylated AMPK was “increased dose-dependently”. The HER2 phosphorylation entry in the test on HER2 [8] (Example 2, 4-fold dilution series from 1 µmol/L in 5 steps, 2 hours) is reported as “suppression of HER2 phosphorylation was confirmed”; in the test on HER2 [8] (Example 6, 1, 0.333, 0.111, 0.033 and 0.011 µmol/L, two hours) it was “decreased dose-dependently”. For the same compound, the EGFR phosphorylation entry in the test on EGFR is on record as “No suppression of EGFR phosphorylation was observed”.
